“Also recorded” adds a separate entry of the source. Where no end group is shown, it is not given here. [ ]: non-standard residue; d: D form.
What was measured:
[1] = system: Murine psoriasis vulgaris-like skin inflammation model; assay: IMQ-induced psoriasis vulgaris-like skin inflammation model, keratinocyte proliferation by BrdU incorporation; assay type: in vivo, BALB/c mice; settings: 25 μM with IMQ cream, day 6; IMQ control 24.5±2.0; FIG. 9 panel B
Description: (§1) BALB/c mice (8-weeks old females; n=42) were used in this model system. […] Accordingly, in this model, each BALB/c mice received a daily topical dose (62.5 mg) of commercially available IMQ cream (Imiquimod Cream 5% w/w, Aldara™) on the shaved back and the right ear for 6 consecutive days (n=6); whereas the control mice (normal group) were treated with a control cream (n=6). For treatment, each test peptide was mixed with IMQ cream to give a concentration of 25 μM (n=6 per group). Keratinocyte proliferation was determined by BrdU incorporation. BrdU (Sigma-Aldrich) was reconstituted in DMSO as a stock solution of 80 mM. 10 μl of BrdU mixed with 90 μl of PBS was intraperitoneally injected into each mouse for 24 hr prior to euthanasia.
(§2) Slides were blocked with 10% goat serum for 60 min and then incubated with primary antibody against BrdU (1:50 dilution; GTX42641) for 3 hr at RT. The slides were then incubated with peroxidase-labeled donkey immunoglobulin for 30 min and then incubated with chromogen substrate (3,3′-diaminobenzidine) for 2 min before counterstaining with hematoxylin. Quantification was estimated based on high quality images (1208×960 pixels buffer) captured using a Nikon Eclipse 80i light microscope.

myeloma RPMI 8226 cell = assay: MTT assay, cell viability; assay type: cell-based, human; settings: 20 μM peptide, 24 h, serum-free RPMI1640; FIGS. 1-2
Description: The multiple myeloma line RPMI8226 or […] Raw264.7 macrophages were cultivated in complex medium (RPMI1640) supplemented with 10% (vol/vol) heat-inactivated fetal calf serum (Invitrogen), 50 μg/mL penicillin, 50 μg/mL streptomycin, and 2 mM L-glutamine at 37° C. in a 5% CO2 atmosphere
RPMI8226 cells or U266 cells were cultured in serum-free RPMI1640 medium for 24 h, and then cells seeded in 48-well culture plates (3×10^5 cells/well) and cultured in 0.5 ml fresh serum-free RPMI1640 medium containing 20 μM peptide for further 24 h. The cell viability was determined by the MTT assay.
50 μL of the MTT stock solution (5 mg MTT dissolved in 1 ml of sterile PBS) was added to each well, and 50 μL of the MTT stock solution was added to 500 μL of medium alone and used as a negative control. Each sample was Incubates at 37° C. for 4 hours. Aliquots (450 μl) from each sample were taken to a new well of 48-well culture plate, adding 100 μL DMSO, mixing thoroughly using the pipette and reacted at 37° C. for 20 min and absorbance was measured at 570 nm.

Murine dry eye model [2] = assay: Dry eye animal model, fluorescein eye stain test for corneal injuries; assay type: in vivo, C57BL/6 mice; settings: peptide 50 μM topically three times a day for 4 days; for reduction in mean corneal fluorescein staining score compared with vehicle treated control mice: FIG. 3 panel B
Description: (§3) C57BL/6 mice (7-8 weeks old, each weighted about 18 to 25 g) were used in this model system. All mice were maintained in the animal facility in accordance with the procedures approved by Mackay Memorial Hospital Review Board (Taiwan, R.O. C.). All animal experimental procedures were conducted according to the ARVO Statement for the Use of Animals in Ophthalmic and Vision Research.
(§4) Dry eyes were induced by placing mice in a controlled environment chamber (CEC) for 14 days in accordance with procedures previously described by Barabino et al (IVOS (2005) 46(8), 2766-2771). Mice placed in the CEC were exposed to a condition, in which relative humidity (RH) was maintained at <25%, temperature at 20-22° C., and airflow at about 15 L/min, for 12 hours per day. Control mice were kept in a normal environment (RH>50%, no air flow, temperature of 20-22° C.) for the same duration.
(§5) A common artificial tear formulation, 1% carboxymethylcelllulose (CMC) dissolved in balanced salt solution (BSS) was used as the peptide vehicle. Peptide (50 μM) or 1% CMC vehicle was topically administered to eyes three times a day, for 4 days.
Corneal epithelial injury was determined by staining with topical fluorescein (100 mg/ml or 10%; FLUORESCITE™, Alcon Laboratories). For dosing, topical fluorescein (0.6 μL of 0.5% sodium fluorescein dissolved in 4.4 μL BSS per eye) was applied via a micro-pipette to the lateral canthus for 15 sec. Corneal fluorescein staining was examined with a slit-lamp biomicroscope under cobalt blue light and photographed with a digital camera. Data is presented as mean±SD. Dye staining of the cornea was scored in a blinded manner as follows: score 0 for no punctuate staining; score 1 when less than one third of the cornea was stained; score 2 when two thirds or less was stained; and score 3 when more than two thirds was stained.

Murine dry eye model [3] = assay: Dry eye animal model, tear production by phenol red thread test; assay type: in vivo, C57BL/6 mice; settings: treated for 4 days; P<0.01 versus vehicle treatment; FIG. 4
Description: as §3, §4, §5
Tear production was measured with phenol red-impregnated cotton threads (Zone-Quick; Oasis, Glendora, Calif.). The validity of this test in mice was performed as previously described (Dursun et al., Invest Ophthalmol Vis Sci. 2002; 43:632-8). The threads were held with jeweler forceps and placed in the lateral canthus for 60 seconds. The tear production expressed in millimeters of thread wet by the tear and turned red.

[4] = system: Murine psoriasis vulgaris-like skin inflammation model; assay: IMQ-induced psoriasis vulgaris-like skin inflammation model, H&E histology of back skin; assay type: in vivo, BALB/c mice; settings: 25 μM with IMQ cream, 6 days; IMQ control 122±10.5; FIG. 8 panel B
Description: as §1
Back skin of the mouse was fixed overnight in 4% paraformaldehyde, dehydrated with graded ethanol series, and paraffinized. Fixed samples were deparaffinized in xylene and rehydrated in a graded series of ethanol. Tissues were sliced into 5-μm sections. General histology was performed using hematoxylin and eosin (H&E) (Merck, Rayway, N.J., USA).
as §2

Substance	myeloma RPMI 8226 cell viability (MTT assay) (myeloma RPMI 8226 cell)	reduction in mean corneal fluorescein staining score compared with vehicle treated control mice (Murine dry eye model [2])	tear volume (tear production) (Murine dry eye model [3])	also measured
NH2-(D-Asp)-Ile-Thr-Tyr-Val-Arg-Leu-Lys-Phe-COOH ([dD]ITYVRLKF; not fully specified (N-terminus, C-terminus); printed as NH2-(D-Asp)-Ile-Thr-Tyr-Val-Arg-Leu-Lys-Phe-COOH) [9-mer DD, 9-mer analogue, aspartate replaced by D-form aspartate]	–	–	–	hyperproliferation of keratinocytes, BrdU-positive cells in the epidermis (labeling index) [1]: 23.3±2.5%
NH2-Ala-Ile-Thr-Tyr-Val-Arg-Leu-Lys-Phe-COOH (AITYVRLKF; not fully specified (N-terminus, C-terminus); printed as NH2-Ala-Ile-Thr-Tyr-Val-Arg-Leu-Lys-Phe-COOH) [9-mer Da, 9-mer analogue, aspartate replaced by alanine]	sustain part of the inhibitory activity	about 3 fold	significantly increased	–
NH2-Asp-Ala-Thr-Tyr-Val-Arg-Leu-Lys-Phe-COOH (DATYVRLKF; not fully specified (N-terminus, C-terminus); printed as NH2-Asp-Ala-Thr-Tyr-Val-Arg-Leu-Lys-Phe-COOH) [9-mer Ia, 9-mer analogue, isoleucine replaced by alanine]	loss of the inhibitory activity	–	–	–
NH2-Asp-Ile-Ala-Tyr-Val-Arg-Leu-Lys-Phe-COOH (DIAYVRLKF; not fully specified (N-terminus, C-terminus); printed as NH2-Asp-Ile-Ala-Tyr-Val-Arg-Leu-Lys-Phe-COOH) [9-mer Ta, 9-mer analogue, threonine replaced by alanine]	loss of the inhibitory activity	–	–	–
NH2-Asp-Ile-Thr-Ala-Val-Arg-Leu-Lys-Phe-COOH (DITAVRLKF; not fully specified (N-terminus, C-terminus); printed as NH2-Asp-Ile-Thr-Ala-Val-Arg-Leu-Lys-Phe-COOH) [9-mer Ya, 9-mer analogue, tyrosine replaced by alanine]	loss of the inhibitory activity	–	–	–
NH2-Asp-Ile-Thr-Tyr-Ala-Arg-Leu-Lys-Phe-COOH (DITYARLKF; not fully specified (N-terminus, C-terminus); printed as NH2-Asp-Ile-Thr-Tyr-Ala-Arg-Leu-Lys-Phe-COOH) [9-mer Va, 9-mer analogue, valine replaced by alanine]	sustain part of the inhibitory activity	about 3 fold	significantly increased	–
NH2-Asp-Ile-Thr-Tyr-Val-Ala-Leu-Lys-Phe-COOH (DITYVALKF; not fully specified (N-terminus, C-terminus); printed as NH2-Asp-Ile-Thr-Tyr-Val-Ala-Leu-Lys-Phe-COOH) [9-mer Ra, 9-mer analogue, arginine replaced by alanine]	loss of the inhibitory activity	–	–	–
NH2-Asp-Ile-Thr-Tyr-Val-Arg-Ala-Lys-Phe-COOH (DITYVRAKF; not fully specified (N-terminus, C-terminus); printed as NH2-Asp-Ile-Thr-Tyr-Val-Arg-Ala-Lys-Phe-COOH) [9-mer La, 9-mer analogue, leucine replaced by alanine]	loss of the inhibitory activity	–	–	–
NH2-Asp-Ile-Thr-Tyr-Val-Arg-Leu-Ala-Phe-COOH (DITYVRLAF; not fully specified (N-terminus, C-terminus); printed as NH2-Asp-Ile-Thr-Tyr-Val-Arg-Leu-Ala-Phe-COOH) [9-mer Ka, 9-mer analogue, lysine replaced by alanine]	loss of the inhibitory activity	–	–	–
NH2-Asp-Ile-Thr-Tyr-Val-Arg-Leu-Lys-(D-Phe)-COOH (DITYVRLK[dF]; not fully specified (N-terminus, C-terminus); printed as NH2-Asp-Ile-Thr-Tyr-Val-Arg-Leu-Lys-(D-Phe)-COOH) [9-mer DF, 9-mer analogue, phenylalanine in D-form]	–	about 3 fold	significantly increased	acanthosis, quantified epidermal thickness [4]: 35.7±4.2 μm; hyperproliferation of keratinocytes, BrdU-positive cells in the epidermis (labeling index) [1]: 6.3±1.2%
NH2-Asp-Ile-Thr-Tyr-Val-Arg-Leu-Lys-Ala-COOH (DITYVRLKA; not fully specified (N-terminus, C-terminus); printed as NH2-Asp-Ile-Thr-Tyr-Val-Arg-Leu-Lys-Ala-COOH) [9-mer Fa, 9-mer analogue, phenylalanine replaced by alanine]	sustain part of the inhibitory activity	about 3 fold	significantly increased	–
NH2-Ile-Thr-Tyr-Val-Arg-Leu-Lys-Ala-COOH (ITYVRLKA; not fully specified (N-terminus, C-terminus); printed as NH2-Ile-Thr-Tyr-Val-Arg-Leu-Lys-Ala-COOH) [8-mer, control 8-mer peptide, aspartate residue of the 9-mer deleted]	–	–	–	corneal fluorescein stain (corneal damage), result in words (Murine dry eye model [2]; vs vehicle): no such effect
NH2-Lys-Ala-Phe-Asp-Ile-Thr-Tyr-Val-Arg-Leu-Lys-Phe-COOH (KAFDITYVRLKF; not fully specified (N-terminus, C-terminus); printed as NH2-Lys-Ala-Phe-Asp-Ile-Thr-Tyr-Val-Arg-Leu-Lys-Phe-COOH) [12-mer, 9-mer with additional 3 amino acid residues at the N-terminal]	successfully suppressed myeloma RPMI 8226 cell viability; also recorded: effective in suppressing myeloma cell viability; also recorded: more potent at lower dose	about 3 fold	significantly increased	acanthosis, quantified epidermal thickness [4]: 35.3±4.1 μm; hyperproliferation of keratinocytes, BrdU-positive cells in the epidermis (labeling index) [1]: 8.5±1.4%
